{
  "source": "patent US20160311911A1",
  "about": "“METHODS FOR TREATING ALLERGIC AIRWAY INFLAMMATION” (priority 2015, published 2016)",
  "key": {"CXCR2 [1]": {"molecular_target": "T1, CXCR2 (Mus musculus, UniProt P35343)", "T1 construct": "endogenous in cells; host or cells: wild-type mice in vivo (receptor on neutrophils)", "T1 sequence (P35343 1-359)": "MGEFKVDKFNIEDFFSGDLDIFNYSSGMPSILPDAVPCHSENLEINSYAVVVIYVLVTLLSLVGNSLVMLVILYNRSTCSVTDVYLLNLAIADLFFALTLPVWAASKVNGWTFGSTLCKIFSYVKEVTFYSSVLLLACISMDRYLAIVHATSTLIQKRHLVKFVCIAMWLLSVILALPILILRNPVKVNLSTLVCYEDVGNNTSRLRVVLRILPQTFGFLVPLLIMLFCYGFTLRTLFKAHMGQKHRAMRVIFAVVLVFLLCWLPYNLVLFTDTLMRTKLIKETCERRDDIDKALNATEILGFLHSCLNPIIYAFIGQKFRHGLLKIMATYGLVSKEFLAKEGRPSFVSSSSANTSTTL", "assay": "RWPE repeated-challenge model with CXCR2 inhibitor", "format": "in vivo", "conditions": "WT mice", "experimental": "WT mice or Tlr4 KO mice were sensitized by five intranasal doses of RWPE (100 μg/60 μl) on Days 0, 1, 2, 3, and 4. These mice were challenged with intranasal RWPE or PBS on Day 11 and killed on Day 14 (14). In addition, WT mice were sensitized by five intranasal doses of RWPE on Days 0, 1, 2, 3, and 4 with RWPE with or without the intranasal administration of 4 mg/kg body weight SB225002 (16) 1 hour before each intranasal dose of RWPE. The mice were challenged with intranasal RWPE on Day 11 and killed on Day 14 (14). In some experiments, Tlr4 KO mice were sensitized by five intranasal doses of RWPE on Days 0, 1, 2, 3, and 4 in the presence or absence of X+XO and challenged with intranasal RWPE in the presence or absence of X+XO on Day 11 and killed on Day 14 as described above (14). In some experiments, RWPE and negatively selected neutrophils derived from bone marrow of donor mice were repeatedly intranasally instilled in Tlr4 KO mice. The purity of neutrophils was assessed to be 99% by FACS. Tlr4 KO mice were intranasally administered neutrophils (4×10^6 neutrophils per mouse) 8 hours after intranasal instillation of RWPE on Days 0, 1, 2, 3, 4, and 11 and killed on Day 14 as described previously to evaluate allergic inflammation.\n(§1) Bronchoalveolar lavage fluid (BALF) and histological examinations including PAS staining for mucin were performed as described previously (Sur et al., J Immunol 1996; 157(9):4173-4180). In some experiments, leukotriene B4 (LTB4), CXCL1/2, IL-5, IL-13, TSLP, and IL-33 in BALF were assayed using ELISA kits (R&D Systems, Minneapolis, Minn.)\nMucin production was assessed by two investigators who were blinded to the treatment groups using a modification of a method reported (Wild et al., 2000, J Immunol 2000; 164(5):2701-2710) on a subjective scale of 0, 1, 2, 3, and 4 corresponding to none, mild, moderate, marked, or severe mucin deposition, respectively. The data were expressed as mean of score recorded by two blinded investigators.\nRWPE-specific IgE was measured using a previously described procedure (Wild et al., J Immunol 2000; 164(5):2701-2710). Briefly 96-well plates were coated with 100 ug/ml of RWPE protein overnight. After washing and blocking, diluted sera from the mice treated as above were applied. The plates were incubated with biotin-conjugated […] (clone R35-72; BD Biosciences, San Jose, Calif.) for 2 hours at room temperature, washed and incubated with avidin-conjugated alkaline phosphatase. After washing, fluorometric values for each well were recorded after addition of AttoPhos substrate solution (Promega, Madison, Wis.)."}, "CXCR2 [2]": {"molecular_target": "T1, CXCR2", "assay": "Ex vivo superoxide generation from BALF cells after RWPE challenge", "format": "in vivo", "conditions": "WT mice; 4 mg/kg intranasal 1 hour before RWPE; 16 hours after RWPE challenge", "experimental": "WT mice and Tlr4 KO mice were challenged with 100 μg of RWPE or PBS and sacrificed at 0.5 and 16 hours. Ex vivo superoxide generation by BALF cells was measured by a mixture of two probes to optimize sensitivity of detection of superoxide (luminol and Diogenes) (Yamazaki et al., Trop Med Health 2011; 39(2):41-45). In additional experiments, WT mice with intranasal administration of the CXCR2 inhibitor SB225002 (4 mg/kg body weight) 1 hour before RWPE challenge, and ex vivo superoxide generation from cells in BALF was quantified."}, "CXCR2 [3]": {"molecular_target": "T1, CXCR2", "assay": "RWPE single-challenge model with CXCR2 inhibitor: BALF cell counts", "format": "in vivo", "conditions": "WT mice", "experimental": "WT mice and Tlr4 KO mice were intranasally challenged with a single dose of 100 μg/60 μl RWPE reconstituted from lyophilized RWPE (Greer Laboratories, Lenoir, N.C.) and killed after 0.5, 1, 4, 16, or 72 hours. In some experiments, to generate superoxide (7, 15), Tlr4 KO mice were intranasally challenged with 0.32 mM xanthine (X) (Sigma-Aldrich, St. Louis, Mo.) with 50 mU xanthine oxidase (XO) (Sigma-Aldrich) in the presence or absence of RWPE. In some experiments, 1 hour before RWPE challenge, WT mice were treated with intranasal administration of 4 mg/kg body weight chemokine (C-X-C motif) receptor 2 (CXCR2) inhibitor SB225002 (Calbiochem, San Diego, Calif.) and challenged with RWPE and killed as described above.\nas §1"}, "IgE": {"system": "IgE", "sequence (P01854 1-428 isoform P01854-1)": "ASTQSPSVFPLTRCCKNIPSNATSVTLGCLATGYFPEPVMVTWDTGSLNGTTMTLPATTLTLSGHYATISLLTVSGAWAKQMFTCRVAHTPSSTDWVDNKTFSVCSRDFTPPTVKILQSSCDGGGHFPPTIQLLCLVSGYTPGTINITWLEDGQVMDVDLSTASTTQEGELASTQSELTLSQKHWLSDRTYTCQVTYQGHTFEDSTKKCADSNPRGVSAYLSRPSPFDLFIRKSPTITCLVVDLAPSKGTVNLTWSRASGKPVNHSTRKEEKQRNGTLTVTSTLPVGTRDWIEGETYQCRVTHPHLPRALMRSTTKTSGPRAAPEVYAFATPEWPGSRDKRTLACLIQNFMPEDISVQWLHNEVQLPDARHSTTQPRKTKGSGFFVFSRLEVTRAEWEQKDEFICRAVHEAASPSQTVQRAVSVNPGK", "conditions": "reference 20; cited from earlier work"}, "NF-κB": {"system": "NF-κB", "assay": "RWPE single-challenge model after intranasal NF-κB inhibitor", "format": "in vivo", "conditions": "WT mice; intranasal 1 hour before RWPE; BAY 11-7082 10 mg/kg, NEMO-binding domain binding peptide 25 per mouse; 16 hours", "experimental": "WT mice were intranasally challenged with a single dose of RWPE or CDE (100 μg/60 μL) and euthanized after 16 hours. In additional experiments, 1 hour before RWPE challenge, WT mice were treated with or without intranasal administration of a nuclear factor κB (NF-κB) inhibitor that selectively irreversibly blocks IκBα phosphorylation with BAY 11-7082 (10 mg/kg body weight; Calbiochem, San Diego, Calif.) (13) or NEMO-binding domain binding peptide (25 per mouse, Calbiochem) (14). These treated mice were challenged with RWPE and euthanized, as described above. Total and differential bronchoalveolar lavage fluid (BALF) cell counts were performed (16). Lungs were perfused and fixed with Zn fixative (BD Biosciences, San Jose, Calif.), and sections were stained with periodic acid-Schiff for mucus staining."}, "[4]": {"conditions": "4 mg/kg intranasal before each RWPE dose, vs vehicle"}},
  "data": [
    {"molecule": "O=C(Nc1ccc([N+](=O)[O-])cc1O)Nc1ccccc1Br", "note": "[SB225002]", "values": [
      {"measurement": "RWPE-induced allergic inflammation", "setting": "CXCR2 [1]; 4 mg/kg intranasal 1 hour before each RWPE dose, compared with vehicle", "result": "attenuated"},
      {"measurement": "decrease in BALF eosinophils", "setting": "CXCR2 [1]; [4]", "result": "50 to 80", "unit": "%"},
      {"measurement": "decrease in BALF level of IL-5", "setting": "CXCR2 [1]; [4]", "result": "50 to 80", "unit": "%"},
      {"measurement": "decrease in BALF level of IL-13", "setting": "CXCR2 [1]; [4]", "result": "50 to 80", "unit": "%"},
      {"measurement": "decrease in BALF level of IL-33", "setting": "CXCR2 [1]; [4]", "result": "50 to 80", "unit": "%"},
      {"measurement": "decrease in BALF level of TSLP", "setting": "CXCR2 [1]; [4]", "result": "50 to 80", "unit": "%"},
      {"measurement": "decrease in BALF total inflammatory cells", "setting": "CXCR2 [1]; [4]", "result": "50 to 80", "unit": "%"},
      {"measurement": "decrease in accumulation of mucin in epithelial cells", "setting": "CXCR2 [1]; [4]", "result": "50 to 80", "unit": "%"},
      {"measurement": "decrease in serum RWPE-specific IgE", "setting": "CXCR2 [1]; [4]", "result": "50 to 80", "unit": "%"},
      {"measurement": "RWPE-induced recruitment of superoxide-generating cells (ex vivo superoxide generation of BALF cells)", "setting": "CXCR2 [2]", "result": "blocked"},
      {"measurement": "suppression of neutrophil recruitment into the lungs (BALF neutrophils)", "setting": "CXCR2 [3]; 4 mg/kg intranasal 1 hour before RWPE challenge, 16 hours after challenge", "result": 66, "unit": "%"},
      {"measurement": "number of other cell types in BALF", "setting": "CXCR2 [3]; inhibitor before RWPE challenge, data not shown", "result": "did not alter"}
    ]},
    {"molecule": "Omalizumab: marketed drug cited for cat allergen exposure", "values": [
      {"measurement": "severity of acute airway obstruction and symptoms caused by exposure to cat allergen", "setting": "IgE", "result": "ameliorates"}
    ]},
    {"molecule": "Cc1ccc(S(=O)(=O)/C=C/C#N)cc1", "note": "[BAY 11-7082]", "values": [
      {"measurement": "RWPE challenge-induced neutrophil recruitment into the airways", "setting": "NF-κB", "result": "decreased"}
    ]}
  ]
}
